1 molecule from patent US8461141B2, “Preventive or therapeutic drug for Alzheimer-type dementia” (Mochida Pharmaceutical Co., Ltd., priority 2005, dated 2013) can be followed below.

Structures are written as SMILES. Values joined by “and” are separate entries in the source; they are usually repeats but may differ in a detail not shown here. Identical values can stand only once.

Assay [1] deals with patients diagnosed with cerebrovascular dementia. Nature of the assay: Hasegawa Dementia Scale and symptom observation in patients with cerebrovascular dementia (Reference Example). The format is in vivo, human. The conditions noted are these: for Hasegawa Dementia Scale After 2 months: individual cerebrovascular dementia patients, EPA-E alone 300 or 600 mg/day for 2 months. On the procedure: (§1) Each patient was evaluated for the improvement of the dementia by Hasegawa Dementia Scale at the start of the test, 2 months after the start of the test (2 months from the start of administering ethyl icosapentate), and 6 months after the start of the test (4 months after the start of the combined administration of the ethyl icosapentate and the levothyroxine sodium).

Assay [2] relates to patients diagnosed with Alzheimer-type dementia. The experiment in a line: Hasegawa Dementia Scale and symptom observation in patients with Alzheimer-type dementia. The conditions noted are these: for Hasegawa Dementia Scale After 2 months: individual Alzheimer-type dementia patients, EPA-E alone 300 or 600 mg/day for 2 months, scale of 30. Format: in vivo, human. The procedure: as §1

Take `CC/C=C\C/C=C\C/C=C\C/C=C\C/C=C\CCCC(=O)OCC` [EPA-E, ethyl icosapentate]: the “Score of the Hasegawa Dementia Scale (range) 2 months after the start of the test” value in assay [1] (10 cerebrovascular dementia patients, EPA-E alone 300-600 mg/day) is on record as “(9-15)”; in assay [2] (14 Alzheimer-type dementia patients, EPA-E alone 300-600 mg/day), “(7-17)”. In addition, the “Score of the Hasegawa Dementia Scale (average ± standard deviation) 2 months after the start of the test” value in assay [1] (10 cerebrovascular dementia patients, EPA-E alone 300-600 mg/day, at the start 10.4 ± 1.7) was found to be 11.2 ± 1.9; in assay [2] (14 Alzheimer-type dementia patients, EPA-E alone 300-600 mg/day, at the start 10.0 ± 3.5), 11.4 ± 3.0. Moreover, the “Hasegawa Dementia Scale After 2 months” value in assay [1] (EPA-E 300 mg/day) was 13 and 10 (2×) and 12; in assay [1] (EPA-E 600 mg/day), 15 and 11 (2×) and 12 and 9 (2×); in assay [2] (EPA-E 300 mg/day) it was 14 and 12 and 11 and 10 and 7 and 9; in assay [2] (EPA-E 600 mg/day), 7 and 8 and 11 (2×) and 17 and 13 and 15 and 14. Moreover, the “Change in the scores of the Hasegawa Dementia Scale, in words” value in assay [2] (Alzheimer-type dementia patients, sole administration of ethyl icosapentate 300 to 600 mg/day for 2 months) is recorded as “no substantial change”.
